According to ChEMBL document CHEMBL1201862, “PubChem BioAssay data set” (2004):
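96-well plates; 48 h exposure; 5 concentrations. Endpoints by linear interpolation between flanking doses. Not reached: highest tested concentration assigned. GI50 = concentration required for 50% inhibition of growth.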 Active and inactive are the calls of the source. Rule as the data show it: active = GI50 up to about 1.1 µM and inactive = higher. Where a SMILES comes first, the peptide text is derived from it. [ ]: non-standard residue; d: D form. The star is where a group is joined. ξ: configuration not given here. ξD = NC(CC(=O)O)C(=O)O; Boc = CC(C)(C)OC(=O)*; Aib = CC(C)(N)C(=O)O; OtBu = CC(C)(C)O*

Assays:
Test in all cases: NCI tumour cell line growth inhibition, 48 h
BT-549 = test system: BT-549
NCI-H226 = test system: NCI-H226
SF-268 = test system: SF-268
OVCAR-4 = test system: OVCAR-4
NCI/ADR-RES = test system: NCI/ADR-RES
TK-10 = test system: TK-10
SN12C = test system: SN12C
ACHN = test system: ACHN
NCI-H522 = test system: NCI-H522
SF-295 = test system: SF-295
SK-OV-3 = test system: SK-OV-3
NCI-H460 = test system: NCI-H460
A498 = test system: A498
K562 = test system: K562
MCF7 = test system: MCF7
LOX IMVI = test system: LOX IMVI
Hs-578T = test system: Hs-578T
U-251 = test system: U-251
CAKI-1 = test system: CAKI-1
786-0 = test system: 786-0

Measured: GI50

CCCCc1ccc(Nc2nc(S)c3[nH]cnc3n2)cc1
inactive: BT-549 17.4 µM | NCI-H226 16.3 µM | SF-268 50.7 µM | OVCAR-4 23.9 µM | NCI/ADR-RES 13.4 µM | TK-10 20.6 µM | SN12C 22.8 µM | ACHN 23.1 µM | NCI-H522 10.9 µM | SF-295 25.1 µM | SK-OV-3 > 10 µM | NCI-H460 33.3 µM | A498 16.6 µM | K562 43.4 µM | MCF7 > 10 µM | LOX IMVI 17.5 µM | Hs-578T 21.5 µM | U-251 24.7 µM | CAKI-1 34.5 µM | 786-0 33.2 µM

CCC1OC(=O)CC(O)C(C)C(OC2OC(C)CC(N(C)C)C2O)C(CC=O)CC(C)C(=O)/C=C/C2(C)OC2C1C (stereo unspecified)
inactive: BT-549 15.1 µM | NCI-H226 16.3 µM | SF-268 27.2 µM | NCI/ADR-RES 31.2 µM | SN12C 18 µM | ACHN 19.6 µM | NCI-H522 15 µM | SF-295 29 µM | SK-OV-3 27.2 µM | NCI-H460 > 100 µM | A498 25.9 µM | K562 6.76 µM | MCF7 5.47 µM | LOX IMVI 17.3 µM | Hs-578T 32.4 µM | U-251 14.8 µM | CAKI-1 31.5 µM | 786-0 17.2 µM

S=c1sc2c(s1)SCc1cccc(n1)CSc1sc(=S)sc1SCc1cccc(n1)CS2
inactive: BT-549 > 100 µM | NCI-H226 > 100 µM | SF-268 > 100 µM | NCI/ADR-RES > 100 µM | TK-10 > 100 µM | SN12C > 100 µM | ACHN > 100 µM | NCI-H522 > 100 µM | SF-295 > 100 µM | SK-OV-3 > 100 µM | NCI-H460 > 100 µM | A498 > 100 µM | K562 > 100 µM | MCF7 > 10 µM | LOX IMVI > 100 µM | Hs-578T > 100 µM | U-251 > 100 µM | CAKI-1 > 100 µM | 786-0 > 100 µM

COC(=O)c1nn2ccc3ccccc3c2c1C(=O)OC
inactive: BT-549 63.5 µM | NCI-H226 > 100 µM | SF-268 > 100 µM | OVCAR-4 > 100 µM | NCI/ADR-RES 62.7 µM | TK-10 > 100 µM | SN12C 58.1 µM | ACHN > 100 µM | NCI-H522 > 100 µM | SF-295 > 100 µM | SK-OV-3 > 100 µM | NCI-H460 > 100 µM | A498 22.5 µM | K562 58.7 µM | MCF7 > 100 µM | LOX IMVI 83.6 µM | Hs-578T > 100 µM | U-251 > 100 µM | CAKI-1 48.9 µM | 786-0 75.2 µM

CS(=O)(=O)c1nc(-c2cc3c(c(S(C)(=O)=O)n2)CCCC3)cc2c1CCCC2
inactive: BT-549 > 43.2 µM | NCI-H226 > 100 µM | SF-268 11.8 µM | OVCAR-4 > 100 µM | NCI/ADR-RES > 64.3 µM | TK-10 > 64.6 µM | SN12C > 100 µM | ACHN > 100 µM | NCI-H522 > 39.8 µM | SF-295 33.6 µM | SK-OV-3 > 35.1 µM | A498 > 100 µM | K562 > 100 µM | MCF7 > 100 µM | LOX IMVI > 62.4 µM | Hs-578T 12.4 µM | U-251 > 55.3 µM | CAKI-1 > 39.9 µM | 786-0 41 µM

COc1ccc(CN(Cc2ccc(OC)cc2)C(=O)CC2(O)C=CCC2)cc1 (stereo unspecified)
inactive: BT-549 > 100 µM | NCI-H226 > 100 µM | OVCAR-4 80 µM | NCI/ADR-RES 43.1 µM | TK-10 > 100 µM | SN12C > 100 µM | ACHN > 100 µM | NCI-H522 32.7 µM | SF-295 56.9 µM | SK-OV-3 > 100 µM | NCI-H460 67.5 µM | A498 > 100 µM | K562 34 µM | MCF7 43.9 µM | LOX IMVI > 100 µM | Hs-578T 48.4 µM | U-251 90.8 µM | CAKI-1 46.7 µM | 786-0 > 100 µM

CC1=C(CO)C(=O)O[C@@H]([C@@H](CO)[C@H]2CCC3C4C[C@@H](O)[C@@]5(O)CC=CC(=O)[C@]5(C)C4CC[C@@]32C)C1 (stereo partly specified)
inactive: BT-549 26.4 µM | NCI-H226 > 100 µM | SF-268 43.3 µM | OVCAR-4 91.8 µM | NCI/ADR-RES > 100 µM | TK-10 > 100 µM | SN12C 55.2 µM | ACHN 36.4 µM | NCI-H522 39.2 µM | SF-295 > 100 µM | SK-OV-3 > 100 µM | A498 63.4 µM | K562 31.8 µM | MCF7 50 µM | LOX IMVI 38.5 µM | Hs-578T 59.2 µM | CAKI-1 > 100 µM | 786-0 28.6 µM

COc1cc2c(cc1C[N+](C)(C)CSc1ccccc1)-c1ccccc1CC2
inactive: BT-549 3.89 µM | NCI-H226 9.02 µM | SF-268 5.32 µM | OVCAR-4 5.98 µM | NCI/ADR-RES 37.5 µM | TK-10 8.77 µM | SN12C 6.21 µM | ACHN 15.3 µM | NCI-H522 2.01 µM | SF-295 12.2 µM | SK-OV-3 12.6 µM | NCI-H460 3.29 µM | A498 18.5 µM | K562 2.18 µM | MCF7 5 µM | LOX IMVI 4 µM | Hs-578T 4.99 µM | U-251 4.14 µM | CAKI-1 13.5 µM | 786-0 6.07 µM

CCOC(=O)c1nc2ccccc2nc1NCc1ccc(OC)cc1
inactive: BT-549 > 100 µM | NCI-H226 > 100 µM | SF-268 > 100 µM | OVCAR-4 > 100 µM | NCI/ADR-RES 68.1 µM | TK-10 17 µM | ACHN > 100 µM | NCI-H522 56.9 µM | SF-295 > 100 µM | SK-OV-3 > 100 µM | NCI-H460 82.8 µM | A498 32.2 µM | K562 > 100 µM | MCF7 47.4 µM | LOX IMVI > 100 µM | Hs-578T 40.5 µM | U-251 64.3 µM | CAKI-1 > 100 µM | 786-0 > 100 µM

COC(=O)C(C)(C)NC(=O)C(C)(C)NC(=O)C(CC(=O)OC(C)(C)C)NC(=O)OC(C)(C)C (stereo unspecified) (Boc-[ξD](OtBu)-[Aib]-[Aib]-OMe)
inactive: BT-549 > 100 µM | NCI-H226 > 100 µM | SF-268 3.71 µM | OVCAR-4 > 100 µM | NCI/ADR-RES > 100 µM | TK-10 > 100 µM | ACHN > 100 µM | NCI-H522 > 100 µM | SF-295 > 100 µM | SK-OV-3 > 100 µM | NCI-H460 > 100 µM | A498 > 100 µM | K562 > 100 µM | MCF7 > 100 µM | LOX IMVI > 100 µM | Hs-578T > 100 µM | U-251 > 100 µM | CAKI-1 > 100 µM | 786-0 > 100 µM
